# Laboratory results reported in patent US20260183277A1, “ANTIVIRAL PHARMACEUTICAL COMPOSITION COMPRISING ERRy INHIBITOR AS ACTIVE INGREDIENT” (priority 2024, published 2026).
# Like-named read-outs stand apart in the source and are kept apart here.
# What was measured:
# SARS-CoV-2 KCDC03 strain = experiment: SARS-CoV-2 KCDC03 challenge of Syrian hamsters; assay type: in vivo; details: for reduction of gross lung lesions, individual therapy: strain not stated
# ERRγ promoter = assay type: cell-based
# [1] = test system: c-Jun occupancy on the AP1 regulatory element site of the ERRγ promoter; assay type: cell-based
# ROS = assay type: cell-based
# PEDV QIAP1401 strain = assay type: cell-based, porcine epidemic diarrhea coronavirus; details: maximum dose of 20 μM
# IAV HA protein = assay type: cell-based, influenza A virus
# SARS-CoV-2 S protein = assay type: cell-based
# free fatty acids (FFA) = assay type: cell-based
# ERRγ = molecular target: T1, ERRγ (Homo sapiens, UniProt P62508); details: compared with lead compound GSK5182; cited from earlier work
# T1 sequence (P62508 1-458): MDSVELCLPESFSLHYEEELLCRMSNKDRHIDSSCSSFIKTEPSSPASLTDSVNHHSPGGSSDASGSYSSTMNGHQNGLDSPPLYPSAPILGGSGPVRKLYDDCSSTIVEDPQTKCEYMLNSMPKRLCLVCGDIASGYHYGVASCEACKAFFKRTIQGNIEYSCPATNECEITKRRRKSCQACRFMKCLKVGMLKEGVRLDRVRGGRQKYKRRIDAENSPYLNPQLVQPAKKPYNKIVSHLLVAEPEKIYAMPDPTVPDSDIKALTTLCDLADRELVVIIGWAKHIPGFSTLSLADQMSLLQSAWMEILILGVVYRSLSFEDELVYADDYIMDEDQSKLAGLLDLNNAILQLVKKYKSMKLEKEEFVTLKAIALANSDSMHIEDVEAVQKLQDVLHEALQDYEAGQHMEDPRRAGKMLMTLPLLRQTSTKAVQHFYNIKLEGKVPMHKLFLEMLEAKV
# [2] = test system: SREBP1c, SREBP1a, FASN, DGAT1, SCD1; assay type: cell-based
# [3] = mice
# [4] = test system: human SREBP1c gene promoter; assay type: cell-based; details: cells infected with each individual virus; 20 μM
# BCoV KWD strain = assay type: cell-based, bovine coronavirus; details: maximum dose of 20 μM
# IAV-infected A549 cells = assay type: cell-based, human
# PSaV Cowden strain = experiment: microbe, parasite or virus in culture; assay type: cell-based, porcine sapovirus; details: Sapporo virus, MOI=0.1 FFU, viral yield in cell supernatant, read-out: half-maximal inhibitory concentration (IC50)
# [5] = test system: SARS-CoV-2-infected cells; experiment: Double-membrane vesicle / dsRNA formation by TEM and confocal microscopy; assay type: cell-based
# [6] = test system: intracellular triacylglycerol (TAG); assay type: cell-based; details: virus-infected cells; 20 μM
# [7] = test system: influenza A virus (IAV) PR8 strain; assay type: cell-based
# [8] = test system: SARS-CoV-2-infected Vero E6 cells; experiment: Eicosanoid and cytokine ELISA in SARS-CoV-2-infected Vero E6 cells; assay type: cell-based, monkey
# [9] = Lung distribution after administration to animals; details: in vivo experiments
# Source text: […]. […] […]
# [10] = test system: intracellular fatty acid oxidation (FAO); assay type: cell-based
smiles,measurement,setting,value
"CCC(CC)COC(=O)[C@H](C)N[P@](=O)(OC[C@H]1O[C@@](C#N)(c2ccc3c(N)ncnn23)[C@H](O)[C@@H]1O)Oc1ccccc1 [remdesivir, reference compound]","reduction of gross lung lesions, individual therapy",SARS-CoV-2 KCDC03 strain; remdesivir 2.5 mg kg^−1 d^−1 alone,20%
"CC(=O)N[C@@H](CS)C(=O)O [NAC, N-acetylcysteine]",virus-induced activation of ERRγ promoter and ERRγ expression,ERRγ promoter,attenuated
same,virus-increased occupancy of c-Jun on the AP1 regulatory element site of the ERRγ promoter,[1],markedly blocked
same,virus-induced ROS generation,ROS,significantly suppressed
CC(C)N1CCN(c2ccc(/C(=C(/CCCO)c3ccccc3)c3ccc(O)cc3)cc2)CC1 [DN200434],reduction in viral genome copy numbers,PEDV QIAP1401 strain,more than 2.0 log 10 steps
same,reduction in viral titers,PEDV QIAP1401 strain,more than 2.0 log 10 steps
same,signs of toxicity,"Syrian hamsters, i.p. 40 mg kg^−1 d^−1, 14 days",did not induce any signs of toxicity
same,"gross or histopathological changes in vital organs (liver, lung, kidney, heart, spleen)",hamsters,did not result in gross or histopathological changes
same,palmitoylation of IAV HA proteins,IAV HA protein,significantly inhibited
same,palmitoylation of SARS-CoV-2 S protein,SARS-CoV-2 S protein,significantly inhibited
same,synthesis of representative fatty acids induced by infection,free fatty acids (FFA),significantly interrupted
same,level of selected FFA,free fatty acids (FFA); 20 μM,either restored the level of selected FFA to that of mock control cells or decreased it below mock control levels
same,functional IC50 relative to GSK5182,ERRγ,12 fold
same,SREBP1c expression activated by individual virus infections,[2],reduced
same,basal level of SREBP1a mRNA,[2]; 20 μM,not affected
same,"lipogenic gene activation (FASN, DGAT1, SCD1 mRNA)",[2]; 20 μM,effectively attenuated
same,"gross or histopathological changes in vital organs (liver, lung, kidney, heart, spleen)",[3],did not result in gross or histopathological changes
same,signs of toxicity,"[3]; i.p. 20 mg kg^−1 d^−1, 14 days",did not induce any signs of toxicity
same,activity of the SREBP1c gene promoter,[4],markedly suppressed
same,reduction in viral genome copy numbers,BCoV KWD strain,more than 2.0 log 10 steps
same,reduction in viral titers,BCoV KWD strain,more than 2.0 log 10 steps
same,levels of PGE2 and LTB4,IAV-infected A549 cells,significantly reduced
same,"proinflammatory cytokines IFN-α, IFN-β, TNF-α, IL-6, and MCP-1",IAV-infected A549 cells,significant suppression
same,IC50,PSaV Cowden strain,6.24 ± 1.07 µM
same,SARS-CoV-2-induced perinuclear DMV clusters containing viral double-stranded RNA,[5]; TEM and confocal microscopy,significant reduction
same,number of progeny viral particles,"[5]; TEM, vs vehicle-treated virus-infected cells",notable reduction
same,lipid accumulation (intracellular TAG),[6],effectively attenuated
same,"viral genome replication, progeny production, and protein synthesis of IAV",[7],dose-dependent suppression
same,IFN-α and IFN-β levels,[8]; SARS-CoV-2-infected Vero cells,remained unchanged
same,"TNF-α, IL-6, and MCP-1 levels",[8]; SARS-CoV-2-infected Vero cells,significantly reduced
same,levels of PGE2 and LTB4,[8]; SARS-CoV-2-infected cells,significantly reduced
same,detection in the lungs via the bloodstream,[9],detected in sufficient quantities in the lungs
same,energy production through 3-oxidation in the mitochondria from the FFA substrate,[10],inhibited
same,reduction in gross lung lesions,"SARS-CoV-2 KCDC03 strain; 40 mg kg^−1 d^−1 i.p., twice a day for four and a half days, vs virus-challenged, vehicle-treated control",92%
same,"reduction of gross lung lesions, individual therapy",SARS-CoV-2 KCDC03 strain; DN200434 40 mg kg^−1 d^−1 alone (combination study),50%
same,IFN-α and IFN-β levels in BALF,"SARS-CoV-2 KCDC03 strain; hamsters, i.p., vs vehicle-treated controls",no effect
